The source of these data is patent US4617394A, “4-methyl-5-(unsubstituted and substituted phenoxy)-2,6-dimethoxy-8-(aminoalkylamino) quinolines” (priority 1985, dated 1986).

Entries after “also recorded” stand apart in the source; their conditions may differ. Counter-ions that a name gives are not always drawn. Like-named read-outs stand apart in the source and are kept apart here.

In data set [1] the test system is Plasmodium berghei KBG 173. As to the kind of experiment: animal or person. Type of data set: in vivo, young ICR/HA Swiss mice. As to conditions: for minimal effective dose: Plasmodium berghei, in Mus musculus; for suppressive activity in words: Rane mouse test; for ΔMST / Activity in words / Toxicity in words: 5 mice; for Activity in words / Toxicity in words: Rane, 20-640 mg/kg. From the text: Blood Schizonticidal Test (Mouse), University of Miami, Rane (suppressive)
This system is based on comparisons of responses to test compounds by Plasmodium berghei KBG 173 malaria in mice as expressed in mean survival times and the mean survival times of untreated controls. Thus, compounds noted as active produce increases in the survival times of the treated animals that are significant when compared with the survival times of untreated controls. Since an established disease is less sensitive to treatment than a disease in the early stages of development, treatment is withheld until the parasitemia is relatively high in order to insure a more reliable assay of activity and the selection of appropriate compounds for intensive preclinical studies.
Utilizing young ICR/HA Swiss mice and a standard inoculum of Plasmodium berghei KBG 173, it is possible to produce a uniform disease fatal to 100% of untreated animals within 6 to 8 days with a mean survival time of 6.2 days. Test animals weigh from 18 to 22 grams but weight variations in any given experimental or control group are confined to 2 to 3 grams. All animals in any given test are approximately of the same age. Animals on test are housed in metal-topped plastic cages, given a standard laboratory diet and water ad libitum.
Test animals receive an intraperitoneal injection of 0.5 ml of 1:100 dilution of heparinized heart's blood with a minimum of 90% parasitized cells (4×10^7 cells), drawn from donor mice infected one week earlier with Plasmodium berghei. The donor strain is maintained by weekly passages in separate groups of mice inoculated with a 0.5 ml of 1:500 dilution of heparinized heart's blood.
Test compounds are administered after dissolution or suspension in peanut oil. A single dose is given subcutaneously 72 hours after the mice are infected with Plasmodium berghei. At this time a 10-15 percent parasitemia has developed; the disease is well established but has not produced sufficient debility to alter the response of the host to toxic effects of the drug on test. Since treatment is withheld for three days to permit the infection to become well established and death occurs in untreated controls within 6 to 8 days, it is believed that this system presents a candidate compound with the maximum challenge. In order to check factors such as changes in the infectivity of Plasmodium berghei or in the susceptibility of the host or to detect technical errors, a group of infected animals treated with pyrimethamine at dose levels producing definite increases in survival time is included as a positive control in every experiment.
In each experiment test compounds are administered in graded doses. […] However, if an active drug is toxic for the host, its toxicity may become a limiting factor; continued increases in dose levels also increase the toxic effects and may result in the diminution of survival times. Deaths prior to the sixth day, when untreated controls begin to die, are regarded as non-parasitic and become the basis for the interpretation that the drug is toxic. Treated animals are kept under observation for 60 days. Survivors at the end of this period of time are considered as cured.
An increase of 100% in mean survival time is considered the minimum effective response for a candidate compound. In calculating mean survival time, toxic deaths and 60 day survivors are not included.

Data set [2] relates to Plasmodium cynomolgi (strain B). As to the kind of experiment: Radical Curative Test in Rhesus Monkeys, SEATO Medical Research Laboratory. Type of data set: in vivo, Indian rhesus monkeys. Conditions: for Radical Curative Activity, Cures (C): Table 1, Seato Rhesus; for Cures (C): Table 8, Seato. The protocol: Radical Curative Test in Rhesus Monkeys, SEATO Medical Research Laboratory, Bangkok,
This test is designed to evaluate the tissue schizonticidal (radical curative) activity of test compounds. Well-conditioned Indian rhesus monkeys of either sex weighing 2-4 Kg are utilized. Plasmodium cynomolgi (strain B) sporozoites are prepared by grinding heavily infected Anopheles dirus salivary glands in 1:1 monkey serum-saline vehicle.
Monkeys are infected by I.V. injection of 10^6 freshly isolated P. cynomolgi sporozoites on day 0. A rapidly rising parasitemia develops after a 7 to 9 day prepatient period, and administration of the test drug is initiated when the rising parasite count exceeds 5000 per mm^3 (typically day 10-12). Test drugs are administered orally (by nasogastric intubation) once daily for 7 consecutive days in aqueous solution or, if insoluble, in suspension in 0.3% methylcellulose solution. Chloroquine diphosphate (3.1 mg of base/kg orally per day) is always administered concurrently with the test drug for 7 days to eliminate blood schizonts. Thus any tissue schizonticidal activity of the test drug will always be apparent even if it lacks blood schizonticidal activity.
A vehicle control monkey and a positive drug control (primaquine) monkey are included in each group of inoculated monkeys.
The effect of the test drug is determined by counting blood parasites. Parasite counts are made daily through day 20, and every two days thereafter. Initially a clearance of blood parasites is observed due to the blood schizonticidal action of chloroquine. […] If there is no relapse within 20 days of the initial clearance of parasitemia, the monkey is splenectomized and its parasitemia followed for an additional 30 days. If there is no relapse within this period, the experiment is terminated and the monkey is considered "cured". Alternately, in some experiments, negative parasitemia was followed for 100 days without prior splenectomy. It has been determined that the splenectomy and non-splenectomy methods yield virtually identical results.
Primaquine diphosphate cures over 90% of monkeys in this test system when administered at a dose of 1.3 mg/kg of salt per day for 7 days ([…]) in combination with chloroquine.

In data set [3] the test system is P. berghei yoelli. As to the kind of experiment: Causal prophylactic activity against sporozoite induced P. berghei yoelli in the mouse. Type of data set: in vivo. Conditions: subcutaneous.
Data set [4] concerns Chesson strain of P. vivax. As to the kind of experiment: Antimalarial activity against (trophozoite-induced) infections of the Chesson strain of P. vivax in the Aotus monkey. Type of data set: in vivo.
Data set [5] is described as follows: Acute toxicity in the rat by oral or intraperitoneal administration. As to conditions: Rat.
The subject of data set [6] is methemoglobin. Type of data set: in vivo, Dog.
Experimental: ^a Primaquine, Comparative Compound, or Compound X, were administered
orally by capsule for four days on days 0, 1, 2 and 3 at a dose of 3 mg/k
primaquine base per day or the molar equivalent.
^e Total methemoglobin production expressed as mg of MHb/ml of
blood/hr for a total of 2 days after administration of the first dose.
^f Area under the % methemoglobin versus time curve (AUC).
The mark [7] stands for this setting: Table 1, P. berghei, Rane Mouse Test, 160 mg/kg.
Setting [8] is: P. cynomolgi, 0.316 mg/kg (× 7).
Where [9] appears, read: text, listed as 5-(4-fluorophenoxy)-primaquine.
Setting [10] is: text, listed as 5-(4-fluorophenoxy)primaquine.
[11] abbreviates: oral capsule, days 0-3, 3 mg/kg primaquine base per day or molar equivalent, means differ significantly (p <.05).

With `COc1cc(NC(C)CCCN)c2nccc(C)c2c1` (stereo not drawn) [4-methylprimaquine diphosphate, 4-methylprimaquine], the minimal effective dose in data set [1] (read-out: active dose (active only at)) is 160 mg/kg; in data set [1] (curative only at this toxic dose, read-out: curative dose, suppressive test) it was 640 mg/kg. Besides, the “suppressive activity in words” value in data set [1] was “very weak activity at non-toxic dose levels”. For the same molecule, the ΔMST in data set [1] (setting [7]) is 9 days; in data set [1] (Table 1, P. berghei, Rane Mouse Test, 320 mg/kg), 10 days; in data set [1] (Table 4, 160 mg/kg), 9 days; in data set [1] (Table 4, 320 mg/kg) it was 10 days. Besides, the “radical curative activity compared with primaquine, in words” value in data set [2] is “comparable to primaquine and somewhat greater in potentcy; also recorded: slightly more effective than primaquine”. For the same molecule, the “radical curative activity in words” value in data set [2] (0.316 mg/kg) is “inactive”. Also, the Cures in data set [2] (1.0 mg/kg) was determined as 100%. The “Radical Curative Activity, Cures (C)” value in data set [2] (setting [8]) is given as 0/4; in data set [2] (P. cynomolgi, 1.0 mg/kg (× 7)), 2/2.
Consider `COc1cc(NC(C)CCCN)c2ncccc2c1Oc1ccc(F)cc1` (stereo not drawn) [5-(4-Fluorophenoxy)primaquine citrate, 5-(4-fluorophenoxy)-primaquine], for which the ΔMST in data set [1] (Table 1, P. berghei, Rane Mouse Test, 80 mg/kg) came out at 7.0 days; in data set [1] (setting [7]), 9 days. In addition, the “suppressive activity in words” value was “active (and non-toxic) in mice at the high dose levels of 320 and 640 mg/kg” in data set [1] (setting [9]); “not an effective suppressive drug” in data set [1] (setting [10]). Also, the “Radical Curative Activity, Cures (C)” value in data set [2] (setting [8]) is 0/2; in data set [2] (P. cynomolgi, 1.0 mg/kg (× 7)), 1/3; in data set [2] (P. cynomolgi, 3.16 mg/kg (× 7)), 1/1. In addition, the results for the “radical curative activity compared with primaquine, in words” value in data set [2] (setting [9]) and in data set [2] (setting [10]) were “no more active than primaquine in the Rhesus model as a radical curative drug” and “not significantly better than that of primaquine”, respectively.
With `COc1cc(NC(C)CCCN)c2nc(O)cc(C)c2c1Oc1cccc(C(F)(F)F)c1` (stereo not drawn) [Analog 1], in data set [1] (Table 8, P. berghei), the Activity in words entry is on record as “Inactive” and the Toxicity in words entry is reported as “non-toxic”.
As to `COc1cc(NC(C)CCCN)c2nc(Oc3ccc(Cl)cc3)cc(C)c2c1Oc1cccc(C(F)(F)F)c1` (stereo not drawn) [Analog 2], in data set [1] (Table 8, P. berghei), the Activity in words entry is on record as “Inactive” and the Toxicity in words entry was “non-toxic”.
Turning to `COc1cc(NC(C)CCCN)c2nc(OCc3ccc(Cl)cc3)cc(C)c2c1Oc1cccc(C(F)(F)F)c1` (stereo not drawn) [Analog 3], in data set [1] (Table 8, P. berghei), the Activity in words entry is reported as “Inactive” and the Toxicity in words entry is recorded as “non-toxic”.
As to `COc1cc(NC(C)CCCN)c2nc(Cl)cc(C)c2c1Oc1cccc(C(F)(F)F)c1` (stereo not drawn) [Analog 4], the “Cures (C)” value in data set [1] (Table 8, number of 5 mice, 160 mg/kg) was 1; in data set [2] (P. cynomolgi, 0.1 mg/kg (×7)) it was 0/1; in data set [2] (P. cynomolgi, 0.316 mg/kg (×7)), 1/2; in data set [2] (P. cynomolgi, 1.0 mg/kg (×7)) it was 2/2.
On to `COc1cc(NC(C)CCCN)c2nccc(C)c2c1Oc1cccc(C(F)(F)F)c1.O=C(O)CCC(=O)O` (stereo not drawn) [Comparative Compound, 8-[(4-amino-1-methylbutyl)amino]-6-methoxy-4-methyl-5-(3-trifluoromethylphenoxy)quinoline succinate], for which the Cures in data set [3] (2.5 mg/kg of salt) is recorded as 6/15; in data set [3] (10 mg/kg of salt), 8/20; in data set [3] (40 mg/kg of salt) it was 13/15; in data set [3] (160 mg/kg of salt) it was 5/5; in data set [4] (1 mg/kg × 3 of base), 1/3; in data set [4] (2 mg/kg × 3 of base), 5/5. Besides, the Cures in data set [4] (4 mg/kg × 3 of base) is listed as 4/4; in data set [4] (16 mg/kg × 3 of base), 3/3; in data set [2] (Table 2, P. cynomolgi, Rhesus, 0.0316 mg/kg × 7 of salt) it was 0/2; in data set [2] (Table 2, P. cynomolgi, Rhesus, 0.10 mg/kg × 7 of salt) it was 0/2; in data set [2] (Table 2, P. cynomolgi, Rhesus, 0.316 mg/kg × 7 of salt), 2/2; in data set [2] (Table 2, P. cynomolgi, Rhesus, 1.0 mg/kg × 7 of salt), 2/2. The ΔMST in data set [1] (Table 4, 5 mg/kg) amounted to 6 days; in data set [1] (Table 4, 10 mg/kg), 4 days; in data set [1] (Table 4, 20 mg/kg) it was 10 days. Besides, the “LD50 (95% Confidence Limit)” value in data set [5] (female, I.P.) is reported as 54 (42-71) mg/kg (Salt); in data set [5] (female, oral), 401 (368-447) mg/kg (Salt); in data set [5] (male, I.P.), 86 (65-109) mg/kg (Salt). In data set [2] (Table 2, ratio of molar ED50, relative to primaquine), the “Molar Primaquine Index by Regression Analysis” value worked out at 6.8. Also, the “increase of peak methemoglobin level versus Compound X” value in data set [6] (Table 7, equimolar doses) was 56%. Further, in data set [6] (Table 7, equimolar doses), the “peak level of methemoglobin” value is reported as 25%. Also, in data set [6] (setting [11]), the “Peak % MHb” value was 25.3 ± 8.30%. Moreover, the “Slope of MHb Formation” value in data set [6] (setting [11]) is 0.55 ± 0.28. Besides, the “Time of Peak MHb” value in data set [6] (setting [11]) came out at 9.00 ± 1.73 days. The “MHb Disappearance Half-Time” value in data set [6] (oral capsule, days 0-3, 3 mg/kg primaquine base per day or molar equivalent, no difference in the means) stood at 9.14 ± 2.42 days. Moreover, the “MHb Production as AUC Corrected for Baseline” value in data set [6] (total methemoglobin production, oral capsule, days 0-3, 3 mg/kg primaquine base per day or molar equivalent, means differ significantly (p <.05)) was 14,566 ± 5,475 mg of MHb/ml of blood/hr.
